Key:
CCRF-CEM = experiment: NCI human cancer cell line growth inhibition: CCRF-CEM; type: cell-based; conditions: Leukemia
HL-60(TB) = experiment: cells; type: cell-based, human
K-562 = experiment: NCI human cancer cell line growth inhibition: K-562; type: cell-based; conditions: K-562, Leukemia
MOLT-4 = experiment: NCI human cancer cell line growth inhibition: MOLT-4; type: cell-based; conditions: MOLT-4, Leukemia
RPMI-8226 = experiment: NCI human cancer cell line growth inhibition: RPMI-8226; type: cell-based; conditions: RPMI-8226, Leukemia
SR = experiment: NCI human cancer cell line growth inhibition: SR; type: cell-based; conditions: Leukemia
A549/ATCC = experiment: NCI human cancer cell line growth inhibition: A549/ATCC; type: cell-based; conditions: NSC Lung
EKVX = experiment: NCI human cancer cell line growth inhibition: EKVX; type: cell-based; conditions: NSC Lung
HOP-62 = experiment: NCI human cancer cell line growth inhibition: HOP-62; type: cell-based; conditions: HOP-62, NSC Lung
HOP-92 = experiment: NCI human cancer cell line growth inhibition: HOP-92; type: cell-based; conditions: HOP-92, NSC Lung
NCI-H226 = type: cell-based, human; conditions: NCI-H226, NSC Lung
NCI-H23 = type: cell-based, human; conditions: NCI-H23, NSC Lung
NCI-H460 = type: cell-based, human; conditions: NCI-H460, NSC Lung
NCI-H522 = type: cell-based, human; conditions: NCI-H522, NSC Lung
COLO 205 = experiment: NCI human cancer cell line growth inhibition: COLO 205; type: cell-based; conditions: COLO 205, Colon
HCC-2998 = experiment: NCI human cancer cell line growth inhibition: HCC-2998; type: cell-based; conditions: HCC-2998, Colon
HCT-116 = experiment: NCI human cancer cell line growth inhibition: HCT-116; type: cell-based; conditions: HCT-116, Colon
HCT-15 = experiment: NCI human cancer cell line growth inhibition: HCT-15; type: cell-based; conditions: HCT-15, Colon
HT29 = experiment: NCI human cancer cell line growth inhibition: HT29; type: cell-based; conditions: HT29, Colon
KM12 = experiment: NCI human cancer cell line growth inhibition: KM12; type: cell-based; conditions: KM12, Colon
SW-620 = experiment: NCI human cancer cell line growth inhibition: SW-620; type: cell-based; conditions: SW-620, Colon
SF-268 = experiment: NCI human cancer cell line growth inhibition: SF-268; type: cell-based; conditions: SF-268, CNS
SF-295 = experiment: NCI human cancer cell line growth inhibition: SF-295; type: cell-based; conditions: SF-295, CNS
SF-539 = experiment: NCI human cancer cell line growth inhibition: SF-539; type: cell-based; conditions: SF-539, CNS
SNB-19 = experiment: NCI human cancer cell line growth inhibition: SNB-19; type: cell-based; conditions: SNB-19, CNS
SNB-75 = experiment: NCI human cancer cell line growth inhibition: SNB-75; type: cell-based; conditions: SNB-75, CNS
U251 = experiment: NCI human cancer cell line growth inhibition: U251; type: cell-based; conditions: U251, CNS
PC-3 = experiment: NCI human cancer cell line growth inhibition: PC-3; type: cell-based; conditions: PC-3, Prostate
DU-145 = experiment: NCI human cancer cell line growth inhibition: DU-145; type: cell-based; conditions: DU-145, Prostate
LOX IMVI = experiment: NCI human cancer cell line growth inhibition: LOX IMVI; type: cell-based; conditions: Melanoma
MALME-3M = experiment: NCI human cancer cell line growth inhibition: MALME-3M; type: cell-based; conditions: Melanoma
MI4 = experiment: NCI human cancer cell line growth inhibition: MI4; type: cell-based; conditions: MI4, Melanoma
SK-MEL-2 = experiment: NCI human cancer cell line growth inhibition: SK-MEL-2; type: cell-based; conditions: SK-MEL-2, Melanoma
SK-MEL-28 = experiment: NCI human cancer cell line growth inhibition: SK-MEL-28; type: cell-based; conditions: SK-MEL-28, Melanoma
SK-MEL-5 = experiment: NCI human cancer cell line growth inhibition: SK-MEL-5; type: cell-based; conditions: SK-MEL-5, Melanoma
UACC-257 = experiment: NCI human cancer cell line growth inhibition: UACC-257; type: cell-based; conditions: UACC-257, Melanoma
UACC-62 = experiment: NCI human cancer cell line growth inhibition: UACC-62; type: cell-based; conditions: UACC-62, Melanoma
IGROVI = experiment: NCI human cancer cell line growth inhibition: IGROVI; type: cell-based; conditions: Ovarian
OVCAR-3 = experiment: NCI human cancer cell line growth inhibition: OVCAR-3; type: cell-based; conditions: OVCAR-3, Ovarian
OVCAR-4 = experiment: NCI human cancer cell line growth inhibition: OVCAR-4; type: cell-based; conditions: OVCAR-4, Ovarian
OVCAR-5 = experiment: NCI human cancer cell line growth inhibition: OVCAR-5; type: cell-based; conditions: OVCAR-5, Ovarian
OVCAR-8 = experiment: NCI human cancer cell line growth inhibition: OVCAR-8; type: cell-based; conditions: OVCAR-8, Ovarian
SK-OV-3 = experiment: NCI human cancer cell line growth inhibition: SK-OV-3; type: cell-based; conditions: SK-OV-3, Ovarian
786-0 = experiment: NCI human cancer cell line growth inhibition: 786-0; type: cell-based; conditions: 786-0, Renal
A498 = experiment: NCI human cancer cell line growth inhibition: A498; type: cell-based; conditions: A498, Renal
ACHN = experiment: NCI human cancer cell line growth inhibition: ACHN; type: cell-based; conditions: Renal
CAKI-1 = experiment: NCI human cancer cell line growth inhibition: CAKI-1; type: cell-based; conditions: CAKI-1, Renal
RXF-393 = experiment: NCI human cancer cell line growth inhibition: RXF-393; type: cell-based; conditions: RXF-393, Renal
SN12C = experiment: NCI human cancer cell line growth inhibition: SN12C; type: cell-based; conditions: Renal
TK-10 = experiment: NCI human cancer cell line growth inhibition: TK-10; type: cell-based; conditions: TK-10, Renal
UO-31 = experiment: NCI human cancer cell line growth inhibition: UO-31; type: cell-based; conditions: UO-31, Renal
MCF7 = experiment: NCI human cancer cell line growth inhibition: MCF7; type: cell-based; conditions: MCF7, Breast
NCI/ADR-RES = type: cell-based, human; conditions: Breast
MDA-MB-231/ATCC = experiment: NCI human cancer cell line growth inhibition: MDA-MB-231/ATCC; type: cell-based; conditions: Breast
MDA-MB-435 = experiment: NCI human cancer cell line growth inhibition: MDA-MB-435; type: cell-based; conditions: MDA-MB-435, Breast
MDA-N = experiment: NCI human cancer cell line growth inhibition: MDA-N; type: cell-based; conditions: Breast
BT-549 = experiment: NCI human cancer cell line growth inhibition: BT-549; type: cell-based; conditions: BT-549, Breast
T-47D = experiment: NCI human cancer cell line growth inhibition: T-47D; type: cell-based; conditions: Breast
HS 578T = experiment: NCI human cancer cell line growth inhibition: HS 578T; type: cell-based; conditions: Breast

CCC/C=C/C=C/C(=O)O[C@H]1/C(=C/C(=O)OC)C[C@H]2C[C@H]([C@@H](C)O)OC(=O)C[C@H](O)C[C@@H]3C[C@H](OC(C)=O)C(C)(C)[C@](O)(C[C@@H]4C/C(=C/C(=O)OC)C[C@H](/C=C/C(C)(C)[C@]1(O)O2)O4)O3 [Bryo-1, reference compound]
Growth inhibition (GI50) (CCRF-CEM): −5.30 log of molar concentration | Growth inhibition (GI50) (HL-60(TB)): −5.70 log of molar concentration | Growth inhibition (GI50) (K-562): −5.40 log of molar concentration | Growth inhibition (GI50) (MOLT-4): −5.50 log of molar concentration | Growth inhibition (GI50) (RPMI-8226): >−5 log of molar concentration | Growth inhibition (GI50) (SR): >−5 log of molar concentration | Growth inhibition (GI50) (A549/ATCC): −5.20 log of molar concentration | Growth inhibition (GI50) (EKVX): −5.30 log of molar concentration | Growth inhibition (GI50) (HOP-62): >−5 log of molar concentration | Growth inhibition (GI50) (HOP-92): −5.30 log of molar concentration | Growth inhibition (GI50) (NCI-H226): >−5 log of molar concentration | Growth inhibition (GI50) (NCI-H23): >−5 log of molar concentration | Growth inhibition (GI50) (NCI-H460): −5.60 log of molar concentration | Growth inhibition (GI50) (NCI-H522): >−5 log of molar concentration | Growth inhibition (GI50) (COLO 205): −5.40 log of molar concentration | Growth inhibition (GI50) (HCC-2998): −5.30 log of molar concentration | Growth inhibition (GI50) (HCT-116): −5.30 log of molar concentration | Growth inhibition (GI50) (HCT-15): >−5 log of molar concentration | Growth inhibition (GI50) (HT29): −5.30 log of molar concentration | Growth inhibition (GI50) (KM12): −5.20 log of molar concentration | Growth inhibition (GI50) (SW-620): −5.50 log of molar concentration | Growth inhibition (GI50) (SF-268): −5.10 log of molar concentration | Growth inhibition (GI50) (SF-295): −5.20 log of molar concentration | Growth inhibition (GI50) (SF-539): >−5 log of molar concentration | Growth inhibition (GI50) (SNB-19): >−5 log of molar concentration | Growth inhibition (GI50) (SNB-75): −5.50 log of molar concentration | Growth inhibition (GI50) (U251): −5.10 log of molar concentration | Growth inhibition (GI50) (PC-3): −5.30 log of molar concentration | Growth inhibition (GI50) (DU-145): >−5 log of molar concentration | Growth inhibition (GI50) (LOX IMVI): −5.10 log of molar concentration | Growth inhibition (GI50) (MALME-3M): −5.20 log of molar concentration | Growth inhibition (GI50) (MI4): >−5 log of molar concentration | Growth inhibition (GI50) (SK-MEL-2): −5.20 log of molar concentration | Growth inhibition (GI50) (SK-MEL-28): −5.10 log of molar concentration | Growth inhibition (GI50) (SK-MEL-5): −5.70 log of molar concentration | Growth inhibition (GI50) (UACC-257): −5.10 log of molar concentration | Growth inhibition (GI50) (UACC-62): −5.30 log of molar concentration | Growth inhibition (GI50) (IGROVI): −5.30 log of molar concentration | Growth inhibition (GI50) (OVCAR-3): −5.10 log of molar concentration | Growth inhibition (GI50) (OVCAR-4): −5.50 log of molar concentration | Growth inhibition (GI50) (OVCAR-5): >−5 log of molar concentration | Growth inhibition (GI50) (OVCAR-8): −5.10 log of molar concentration | Growth inhibition (GI50) (SK-OV-3): −5.10 log of molar concentration | Growth inhibition (GI50) (786-0): −5.20 log of molar concentration | Growth inhibition (GI50) (A498): >−5 log of molar concentration | Growth inhibition (GI50) (ACHN): −5.50 log of molar concentration | Growth inhibition (GI50) (CAKI-1): −5.40 log of molar concentration | Growth inhibition (GI50) (RXF-393): −5.30 log of molar concentration | Growth inhibition (GI50) (SN12C): −5.10 log of molar concentration | Growth inhibition (GI50) (TK-10): >−5 log of molar concentration | Growth inhibition (GI50) (UO-31): −5.60 log of molar concentration | Growth inhibition (GI50) (MCF7): −5.20 log of molar concentration | Growth inhibition (GI50) (NCI/ADR-RES): >−5 log of molar concentration | Growth inhibition (GI50) (MDA-MB-231/ATCC): −5.20 log of molar concentration | Growth inhibition (GI50) (MDA-MB-435): −5.10 log of molar concentration | Growth inhibition (GI50) (MDA-N): −5.10 log of molar concentration | Growth inhibition (GI50) (BT-549): −5.10 log of molar concentration | Growth inhibition (GI50) (T-47D): −5.20 log of molar concentration | Growth inhibition (GI50) (HS 578T): −5.2 log of molar concentration
